# From ChEMBL document CHEMBL1126682, “Quinolone antimicrobial agents substituted with morpholines at the 7-position. Syntheses and structure-activity relationships” (J Med Chem, 1993)
# pIC50: −log10 of the molar value.
# Legend:
# Escherichia coli [1] = test: Minimum inhibition concentration against Escherichia coli NIHJ JC-2 strain; type: functional
# Escherichia coli [2] = test: Minimum inhibitory concentration against Escherichia coli KC14 strain; type: functional
# Enterococcus faecalis = test: Minimum inhibition concentration against Enterococcus faecalis LS-101 strain; type: functional
# [3] = target: GABA-A receptor; anion channel; test: Inhibition of [3H]muscimol binding to GABA A receptor 4-biphenylacetic acid at 10 e-4 M; type: protein-complex assay; conditions: read-out: IC50
# [4] = target: T1, GABA-A receptor; anion channel (Homo sapiens) (UniProt P14867+P47870+P18507+P28472+P48169+Q99928+Q9UN88+P34903+O00591+O14764+Q8N1C3+P18505+P78334+P47869+P31644+Q16445); test: Percentage of GABA-induced chloride currents with 10 e-5 M 4-biphenylacetic acid; type: functional; conditions: Bull Frog
# [5] = target: T1, GABA-A receptor; anion channel (Homo sapiens); test: Percentage of GABA-induced chloride currents with 10e-4 M 4-biphenylacetic acid; type: functional; conditions: Bull Frog
# [6] = target: T1, GABA-A receptor; anion channel (Homo sapiens); test: Percentage of GABA-induced chloride currents with compound alone at 10 e-4 M; type: functional; conditions: Bull Frog
# Mus musculus [7] = test: Percentage of mice with convulsion (400 mg/kg fenbufen); type: functional
# Mus musculus [8] = test: Percentage of mice with convulsion with compound alone at 400 mg/kg; type: functional
# Escherichia coli [9] = test: Effective dose against Escherichia coli KC14 strain in mouse; type: functional
# Staphylococcus aureus [10] = test: Effective dose against Staphylococcus aureus smith strain in mouse; type: functional
# Pseudomonas aeruginosa = test: Minimum inhibition concentration against Pseudomonas aeruginosa U-31 strain; type: functional
# Staphylococcus aureus [11] = test: Minimum inhibition concentration against Staphylococcus aureus FDA209P strain; type: functional
# Staphylococcus aureus [12] = test: Minimum inhibitory concentration against Staphylococcus aureus Smith; type: functional
# Streptococcus pneumoniae = test: Minimum inhibition concentration against Streptococcus pneumoniae Type I strain; type: functional
# [13] = target: GABA-A receptor; anion channel; test: Inhibition of [3H]muscimol binding to GABA A receptor with compound alone at 10 e-4 M; type: protein-complex assay
# [14] = The compound was evaluated for the solubility in water at 25 degrees Centigrade; type: ADME
# [15] = target: GABA-A receptor; anion channel; test: Inhibition of [3H]muscimol binding to GABA A receptor with 10 e-4 M 4-biphenylacetic acid; type: protein-complex assay
# Staphylococcus aureus [16] = test: Minimum inhibition concentration against Staphylococcus aureus MRSA strain; type: functional
smiles,measurement,setting,value
CC1COc2c(N3CCN(C)CC3)c(F)cc3c(=O)c(C(=O)O)cn1c23 (stereo not given) [OFLOXACIN],MIC,Escherichia coli [1],0.1 µg/mL
same,MIC,Escherichia coli [2],0.05 µg/mL
same,MIC,Enterococcus faecalis,0.78 µg/mL
same,pIC50,[3],4.96
same,Currents,[4],87%
same,Currents,[5],39%
same,Currents,[6],94%
same,Convulsion,Mus musculus [7],0%
same,Convulsion,Mus musculus [8],0%
same,ED50,Escherichia coli [9],0.009 mg mouse-1
same,ED50,Staphylococcus aureus [10],0.27 mg mouse-1
same,MIC,Pseudomonas aeruginosa,0.78 µg/mL
same,MIC,Staphylococcus aureus [11],0.2 µg/mL
same,MIC,Staphylococcus aureus [12],0.2 µg/mL
same,MIC,Streptococcus pneumoniae,0.78 µg/mL
same,pIC50,[13],< 4.00
CCn1cc(C(=O)O)c(=O)c2cc(F)c(N3CCOC(CN)C3)c(F)c21 (stereo not given),solubility,[14],2900 µg/mL
same,MIC,Escherichia coli [1],1.56 µg/mL
same,MIC,Escherichia coli [2],0.39 µg/mL
same,MIC,Enterococcus faecalis,0.39 µg/mL
same,pIC50,[3],< 4.00
same,Currents,[4],89%
same,Currents,[5],79%
same,Currents,[6],94%
same,Convulsion,Mus musculus [7],0%
same,Convulsion,Mus musculus [8],0%
same,ED50,Escherichia coli [9],0.232 mg mouse-1
same,ED50,Staphylococcus aureus [10],0.521 mg mouse-1
same,MIC,Pseudomonas aeruginosa,3.13 µg/mL
same,MIC,Staphylococcus aureus [11],0.2 µg/mL
same,MIC,Staphylococcus aureus [12],0.1 µg/mL
same,MIC,Streptococcus pneumoniae,0.39 µg/mL
same,pIC50,[13],< 4.00
NCC1CN(c2c(F)cc3c(=O)c(C(=O)O)cn(C4CC4)c3c2F)CCO1 (stereo not given),solubility,[14],580 µg/mL
same,MIC,Escherichia coli [1],0.1 µg/mL
same,MIC,Escherichia coli [2],0.05 µg/mL
same,MIC,Enterococcus faecalis,0.05 µg/mL
same,pIC50,[3],< 4.00
same,Currents,[4],90%
same,Currents,[5],72%
same,Currents,[6],90%
same,Convulsion,Mus musculus [7],0%
same,Convulsion,Mus musculus [8],0%
same,ED50,Escherichia coli [9],0.017 mg mouse-1
same,ED50,Staphylococcus aureus [10],0.067 mg mouse-1
same,MIC,Pseudomonas aeruginosa,0.78 µg/mL
same,MIC,Staphylococcus aureus [11],0.025 µg/mL
same,MIC,Staphylococcus aureus [12],0.012 µg/mL
same,MIC,Streptococcus pneumoniae,0.05 µg/mL
same,pIC50,[13],< 4.00
CN(Cc1ccccc1)CC1CN(c2c(F)cc3c(=O)c(C(=O)O)cn(C4CC4)c3c2F)CCO1 (stereo not given),MIC,Escherichia coli [1],1.56 µg/mL
same,MIC,Enterococcus faecalis,1.56 µg/mL
same,MIC,Pseudomonas aeruginosa,25 µg/mL
same,MIC,Staphylococcus aureus [11],0.39 µg/mL
same,MIC,Streptococcus pneumoniae,0.78 µg/mL
O=C(O)c1cn(C2CC2)c2cc(N3CCOCC3)c(F)cc2c1=O,MIC,Escherichia coli [1],0.2 µg/mL
same,MIC,Enterococcus faecalis,0.78 µg/mL
same,pIC50,[15],< 4.00
same,Currents,[4],99%
same,Currents,[5],91%
same,Currents,[6],100%
same,Convulsion,Mus musculus [7],0%
same,Convulsion,Mus musculus [8],0%
same,MIC,Pseudomonas aeruginosa,1.56 µg/mL
same,MIC,Staphylococcus aureus [11],0.05 µg/mL
same,MIC,Streptococcus pneumoniae,3.13 µg/mL
same,MIC,Staphylococcus aureus [16],0.1 µg/mL
same,pIC50,[13],< 4.00
NCC1CN(c2c(F)cc3c(=O)c(C(=O)O)cn(C4CC4)c3c2F)CCCO1 (stereo not given),MIC,Escherichia coli [1],0.39 µg/mL
same,MIC,Enterococcus faecalis,1.56 µg/mL
same,MIC,Pseudomonas aeruginosa,6.25 µg/mL
same,MIC,Staphylococcus aureus [11],0.78 µg/mL
same,MIC,Streptococcus pneumoniae,1.56 µg/mL
NCC1CN(c2c(F)cc3c(=O)c(C(=O)O)cn(C4CC4)c3c2Cl)CCO1 (stereo not given),MIC,Escherichia coli [1],0.1 µg/mL
same,MIC,Enterococcus faecalis,0.05 µg/mL
same,MIC,Pseudomonas aeruginosa,1.56 µg/mL
same,MIC,Staphylococcus aureus [11],0.012 µg/mL
same,MIC,Streptococcus pneumoniae,0.05 µg/mL
CNCC1CN(c2c(F)cc3c(=O)c(C(=O)O)cn(C4CC4)c3c2F)CCO1 (stereo not given),solubility,[14],630 µg/mL
same,MIC,Escherichia coli [1],0.1 µg/mL
same,MIC,Escherichia coli [2],0.05 µg/mL
same,MIC,Enterococcus faecalis,0.1 µg/mL
same,pIC50,[3],< 4.00
same,Currents,[4],90%
same,Currents,[5],78%
same,Currents,[6],94%
same,Convulsion,Mus musculus [7],0%
same,Convulsion,Mus musculus [8],0%
same,ED50,Escherichia coli [9],0.024 mg mouse-1
same,ED50,Staphylococcus aureus [10],0.044 mg mouse-1
same,MIC,Pseudomonas aeruginosa,3.13 µg/mL
same,MIC,Staphylococcus aureus [11],0.025 µg/mL
same,MIC,Staphylococcus aureus [12],0.012 µg/mL
same,MIC,Streptococcus pneumoniae,0.1 µg/mL
same,pIC50,[13],< 4.00
O=C(O)c1cn(C2CC2)c2c(F)c(N3CCNCC3)c(F)cc2c1=O,MIC,Escherichia coli [1],0.006 µg/mL
same,MIC,Enterococcus faecalis,0.2 µg/mL
same,pIC50,[3],6.92
same,Currents,[4],11%
same,Currents,[5],0%
same,Currents,[6],81%
same,Convulsion,Mus musculus [7],88%
same,Convulsion,Mus musculus [8],0%
same,MIC,Pseudomonas aeruginosa,0.1 µg/mL
same,MIC,Staphylococcus aureus [11],0.1 µg/mL
same,MIC,Streptococcus pneumoniae,0.39 µg/mL
same,MIC,Staphylococcus aureus [16],0.78 µg/mL
same,pIC50,[13],4.19
CN(C)CC1CN(c2c(F)cc3c(=O)c(C(=O)O)cn(C4CC4)c3c2F)CCO1 (stereo not given),solubility,[14],> 1000 µg/mL
same,MIC,Escherichia coli [1],0.2 µg/mL
same,MIC,Escherichia coli [2],0.05 µg/mL
same,MIC,Enterococcus faecalis,0.39 µg/mL
same,pIC50,[3],< 4.00
same,Currents,[4],89%
same,Currents,[5],83%
same,Currents,[6],91%
same,Convulsion,Mus musculus [7],0%
same,Convulsion,Mus musculus [8],0%
same,ED50,Escherichia coli [9],0.009 mg mouse-1
same,ED50,Staphylococcus aureus [10],0.035 mg mouse-1
same,MIC,Pseudomonas aeruginosa,3.13 µg/mL
same,MIC,Staphylococcus aureus [11],0.025 µg/mL
same,MIC,Staphylococcus aureus [12],0.012 µg/mL
same,MIC,Streptococcus pneumoniae,0.05 µg/mL
same,pIC50,[13],< 4.00
O=C(O)c1cn(C2CC2)c2c(F)c(N3CCOC(CN4CCCCC4)C3)c(F)cc2c1=O (stereo not given),MIC,Escherichia coli [1],3.13 µg/mL
same,MIC,Enterococcus faecalis,25 µg/mL
same,MIC,Pseudomonas aeruginosa,50 µg/mL
same,MIC,Staphylococcus aureus [11],0.78 µg/mL
same,MIC,Streptococcus pneumoniae,6.25 µg/mL
